Values joined by “and” are separate entries in the source; they are usually repeats but may differ in a detail not shown here. Equal entries are not always repeated. Where two headings read alike, the source gives them in different places. Starred links: 1 amine or outer side, 2 acyl side, 3 side chain; linkers in the order of their positions; H or OH if unused. Non-standard residues stand in square brackets, D forms with d. Residues, ends and D or L forms follow the SMILES beside them. Groups on a side chain read outwards from the residue. *: point of attachment. C20 diacid = O=C(O)CCCCCCCCCCCCCCCCCCC(=O)*; γGlu = O=C(O)[C@H](CCC(=O)[*:2])N[*:1]; NMeI = CC[C@H](C)[C@H](NC)C(=O)O; AEEA = NCCOCCOCC(=O)O
Columns and labels:
in vivo [1] = settings: male, cynomolgus monkey, sc, 50 nmol/kg
Method: (§1) Plasma concentrations of compounds were determined by LC/MS methods. Each method measured the intact compound; peptide plus linked time extension. For each assay, the compound and an analog, used as an internal standard (IS), were extracted from 100% mouse, rat or monkey plasma (25 μl) using acetonitrile. Two distinct layers were formed upon centrifugation with the compound and the IS located in the supernatant layer. An aliquot of the supernatant (80 μl) was transferred to a Thermo Protein Precipitation Plate with water (150 μl) and formic acid (25 μl) followed by mixing. A final 31% acetonitrile in 10% formic acid sample (10 μl) was loaded onto a Supelco Analytical Discovery BIO Wide Pore C5-3 column (5 cm×1 mm, 3 μm). The column effluent was directed into a Thermo Q-Exactive mass spectrometer for detection and quantitation.
(§2) Male Cynomolgus monkeys were administered a single subcutaneous dose or intravenous dose (96.4 nmol/kg) of a compound described herein in 20 mM Tris-HCl Buffer (pH 7) at a volume of 1 mL/kg. Blood was collected from each animal at 2, 6, 24, 48, 72, 96, 168, 240, 336, 408, and 504 hours postdose for pharmacokinetic characterization.
(§3) Male Cynomolgus monkeys were also administered a single subcutaneous dose (50 nmol/kg) of a compound described herein in 20 mM Tris-HCl Buffer (pH 8) at a volume of 0.26 mL/kg. Blood was collected from each animal at 3, 6, 12, 24, 48, 72, 96, 120, 168, 192, 240, 336, 408, and 504 hours postdose for pharmacokinetic characterization.

in vivo [2] = settings: male, Sprague Dawley, rat, sc; for half-life: T1/2
Method: as §1
(§4) Male Sprague Dawley rats were administered a single subcutaneous dose (50 or 150 nmol/kg) of a compound described herein in 20 mM Tris-HCl Tris Buffer (pH 8) at a volume of 0.26 or 0.77 mL/kg.

in vivo [3] = settings: male, CD-1, mouse, sc, 350 nmol/kg
Method: as §1
(§5) Male CD-1 mice were administered a single subcutaneous dose (350, 386 or 388 nmol/kg) of a compound described herein in 20 mM Tris-HCl Tris Buffer (pH 7 or 8) at a volume of 0.05 or 0.06 mL/animal. Blood was collected at 6, 12, 24, 48, 72, 96, 120 and 168 hours postdose for pharmacokinetic characterization (101).

remnant kidney mice = test: Mouse remnant kidney model of hypertensive nephropathy (Example 2, 9 weeks); format: in vivo; settings: all groups
Method: A mouse remnant kidney model (“remnant”) involving surgical reduction of ¾ of the entire renal mass is used as a preclinical model of hypertensive renal disease (Kidney Int. 64(1):350-5, (2003)).
Surgical reduction of renal mass (N=40 mice) or sham surgery is performed by Taconic, Inc. in male 129S6 mice at 8-9 weeks of age (obtained by Taconic, Inc.). Randomization into 5 equivalent groups of 8 remnant kidney mice is done at 15 weeks post-surgery by urine albumin to creatinine ratio (ACR) and body weight.
Study duration is 9 weeks. After 2 weeks of dosing, a necropsy is done on all groups except the 144 nmol/kg group of Example 2 which continues to be monitored for ACR for another 7 weeks to determine the durability of the effects of the compound of Example 2 on urine ACR. […]
Body weight is determined at baseline and at termination with a Metler Toledo Balance. […] Serum is analyzed for BUN and creatinine on a Roche Hitachi Modular Analytics P analyzer with reagents from Roche. […]
Urine albumin and creatinine are determined on a Roche Hitachi Modular Analytics P analyzer. Urine creatinine is determined with the Creatinine Plus reagent by Roche. […]
All data are analyzed with JMP v.8.0 software (SAS Institute). […] All other data were evaluated by ANOVA with log transformed data if the data were skewed and a Students unpaired t test. […]

[4] = cynomolgus monkey, in vivo, sc, 96.4 nmol/kg
Method: as §1, §2, §3

[5] = cynomolgus monkey, in vivo, iv, 96.4 nmol/kg, T1/2
Method: (§6) Plasma concentrations of compounds were determined by LC/MS methods. Each method measured the intact compound; peptide plus linked time extension. […] Two distinct layers were formed upon centrifugation with the compound and the IS located in the supernatant layer. An aliquot of the supernatant (80 μl) was transferred to a Thermo Protein Precipitation Plate with water (150 μl) and formic acid (25 μl) followed by mixing. A final 31% acetonitrile in 10% formic acid sample (10 μl) was loaded onto a Supelco Analytical Discovery BIO Wide Pore C5-3 column (5 cm×1 mm, 3 μm). The column effluent was directed into a Thermo Q-Exactive mass spectrometer for detection and quantitation.
as §2

[6] = rat, in vivo, sc, 150 nmol/kg
Method: as §1, §4

[7] = mouse, in vivo, sc, 386 nmol/kg
Method: as §1, §5

[8] = Pharmacokinetics, single intravenous dose, monkeys; settings: for clearance: in vivo, CL
Method: as §6, §2

[9] = male Cynomolgus monkeys, single 96.4 nmol/kg i.v., individual animal
[10] = male, cynomolgus monkey, plasma, iv, 96.4 nmol/kg

## CC[C@H](C)[C@H](NC)C(=O)N[C@H](C(=O)N[C@@H](CC(C)C)C(=O)N[C@@H](CO)C(=O)N[C@@H](CC(C)C)C(=O)N[C@@H](CC(=O)O)C(=O)N[C@H](C(=O)N1CCC[C@H]1C(=O)N[C@H](C(=O)NCC(=O)N[C@@H](CC(C)C)C(=O)N[C@@H](CC(C)C)C(=O)N[C@@H](CCC(N)=O)C(=O)N[C@H](C(=O)N[C@@H](CC(C)C)C(=O)N[C@@H](CC(C)C)C(=O)N[C@@H](CCC(=O)O)C(=O)N[C@@H](CCC(N)=O)C(=O)N[C@@H](CCC(=O)O)C(=O)N[C@@H](CCCCN)C(=O)N[C@@H](CCC(N)=O)C(=O)N[C@@H](CCC(=O)O)C(=O)N[C@@H](CCCCN)C(=O)N[C@@H](CCC(=O)O)C(=O)N[C@@H](CCCCN)C(=O)N[C@@H](CCC(N)=O)C(=O)N[C@@H](CCC(N)=O)C(=O)N[C@@H](C)C(=O)N[C@@H](CCCCNC(=O)COCCOCCNC(=O)COCCOCCNC(=O)CC[C@H](NC(=O)CC[C@H](NC(=O)CCCCCCCCCCCCCCCCCCC(=O)O)C(=O)O)C(=O)O)C(=O)N[C@H](C(=O)N[C@@H](CC(N)=O)C(=O)N[C@@H](C)C(=O)N[C@@H](CCC(N)=O)C(=O)N[C@H](C(=O)N[C@@H](CC(C)C)C(=O)N[C@@H](C)C(=O)N[C@@H](CCC(N)=O)C(=O)N[C@H](C(N)=O)C(C)C)[C@@H](C)CC)[C@@H](C)O)[C@@H](C)CC)[C@@H](C)CC)C(C)C)C(C)C [Example 4] (H-[NMeI]VLSLDVPIGLLQILLEQEKQEKEKQQAK([AEEA-AEEA-γGlu-γGlu-C20 diacid])TNAQILAQV-NH2)
In vivo [1]; CL/F
  CL/F: 0.97 mL/h/kg
In vivo [1]; T1/2
  half-life: 79 h
In vivo [2]; 50 nmol/kg
  CL/F: 6.4 mL/h/kg
  half-life: 19 h
In vivo [2]; 150 nmol/kg
  CL/F: 6.8 mL/h/kg
  half-life: 21 h
In vivo [3]
  CL/F: 6.8 mL/h/kg
  half-life: 18 h

## CC[C@H](C)[C@H](NC(C)=O)C(=O)N[C@H](C(=O)N[C@@H](CC(C)C)C(=O)N[C@@H](CO)C(=O)N[C@@H](CC(C)C)C(=O)N[C@@H](CC(=O)O)C(=O)N[C@H](C(=O)N1CCC[C@H]1C(=O)N[C@H](C(=O)NCC(=O)N[C@@H](CC(C)C)C(=O)N[C@@H](CC(C)C)C(=O)N[C@@H](CCC(N)=O)C(=O)N[C@H](C(=O)N[C@@H](CC(C)C)C(=O)N[C@@H](CC(C)C)C(=O)N[C@@H](CCC(=O)O)C(=O)N[C@@H](CCC(N)=O)C(=O)N[C@@H](CCC(=O)O)C(=O)N[C@@H](CCCCN)C(=O)N[C@@H](CCC(N)=O)C(=O)N[C@@H](CCC(=O)O)C(=O)N[C@@H](CCCCN)C(=O)N[C@@H](CCC(=O)O)C(=O)N[C@@H](CCCCN)C(=O)N[C@@H](CCC(N)=O)C(=O)N[C@@H](CCC(N)=O)C(=O)N[C@@H](C)C(=O)N[C@@H](CCCCNC(=O)COCCOCCNC(=O)COCCOCCNC(=O)CC[C@H](NC(=O)CC[C@H](NC(=O)CCCCCCCCCCCCCCCCCCC(=O)O)C(=O)O)C(=O)O)C(=O)N[C@H](C(=O)N[C@@H](CC(N)=O)C(=O)N[C@@H](C)C(=O)N[C@@H](CCC(N)=O)C(=O)N[C@H](C(=O)N[C@@H](CC(C)C)C(=O)N[C@@H](C)C(=O)N[C@@H](CCC(N)=O)C(=O)N[C@H](C(N)=O)C(C)C)[C@@H](C)CC)[C@@H](C)O)[C@@H](C)CC)[C@@H](C)CC)C(C)C)C(C)C [Example 2] (Ac-IVLSLDVPIGLLQILLEQEKQEKEKQQAK([AEEA-AEEA-γGlu-γGlu-C20 diacid])TNAQILAQV-NH2)
Remnant kidney mice
  deaths during the study: no deaths
[4]; CL/F
  CL/F: 0.41 mL/h/kg
[4]; T1/2
  half-life: 97 h
[5]
  half-life: 124 h
[6]; CL/F
  CL/F: 4.7 mL/h/kg
[6]; T1/2
  half-life: 34 h
[7]
  CL/F: 8.3 mL/h/kg
  half-life: 20 h
[8]; cynomolgus monkey, iv, 96.4 nmol/kg, male Cynomolgus monkeys, single 96.4 nmol/kg i.v., Mean
  clearance: 0.32 mL/h/kg
[8]; cynomolgus monkey, iv, 96.4 nmol/kg, male Cynomolgus monkeys, single 96.4 nmol/kg i.v., individual animal
  clearance: 0.28 mL/h/kg
[8]; [9]
  C0 (estimated plasma concentration at time zero): 3.267 µM and 3.059 µM
  CL: 0.36 mL/h/kg
[8]; [10]
  AUC(0-inf): 306 µM·h
  C0: 3.16 µM

Reference: patent US10894817B2, “Fatty acid modified urocortin-2 analogs for the treatment of diabetes and chronic kidney disease” (priority 2016, dated 2021)
